{"source": "patent US20240130368A1", "about": "“HERBICIDAL COMPOSITION” (Nippon Soda Co., Ltd., priority 2021, published 2024)", "assay_type_in_all_cases": "in vivo", "key": {"Ambrosia artemisiifolia": {"system": "Ambrosia artemisiifolia", "test": "Test Example 1: seeds on filter paper moistened with chemical solution, herbicidal effect visually evaluated", "details": "Ambrosia artemisiifolia, 144 h, visually evaluated 6 days after treatment", "experimental": "As the compound (1), 1-methoxy-3-methyl-6-(1,1-dioxido-8-(trifluoromethyl)thiochroman-5-yl)-7-oxa-3,4-diazabicyclo[4.1.0]hept-4-en-2-one (Compound (I-3)) was used.\nThe compound (I) or compound (II) was prepared into a 5% emulsion using DMF (containing 1.5% Tween) and diluted with water to a prescribed dosage concentration. Commercially available preparations were dissolved in water and adjusted to a prescribed dosage concentration.\nSeeds were soaked in 0.6% sodium hypochlorite for a predetermined time for surface sterilization and washed with water for use (seed disinfection). Seeds of Ambrosia artemisiifolia were used for the test.\nFilter paper was placed on a cup (diameter: 10 cm, height: 4 cm) with a lid and moistened with 8 ml of chemical solution, and seeds were sown thereon, and after covering with a lid, grown in a constant temperature room.\nThe herbicidal effects were visually evaluated, 6 days after the treatment, as the herbicidal effect (%), by comparing with a state of an untreated group using a total of 21 scores of withering index from 0 to 20 (0: mortality rate equivalent to that of the untreated group, 20: mortality rate of 100%).\n(§1) In addition, the expected values of the herbicidal effects were calculated from the herbicidal effects in a case where the compound (I) alone was applied and the herbicidal effects in a case where the compound (II) alone was applied by using the Colby's formula (Colby, S. R., Calculating synergistic and antagonistic responses of herbicide combinations, Weeds, 15, pp. 20-22 (1967)).\nM indicates an herbicidal effect (%) in the application of the compound (I) alone, N indicates an herbicidal effect (%) in the application of the compound (II) alone, and E indicates an expected value (%) of the herbicidal effect in the combined application of the compound (T) and the compound (TT). When the actual measured value (%) of the herbicidal effect in the combined application of the compound (I) and the compound (II) is greater than the expected value E, it can be regarded that the combined application of the compound (I) and the compound (II) has a synergistic effect."}, "Triticum aestivum": {"system": "Triticum aestivum", "test": "Test Example 5: spraying on the soil surface, herbicidal effect from above ground weight (useful plant)", "details": "Compound (I-3) alone, sprayed on the soil surface, seven weeks after spraying", "experimental": "(§2) POA allylphenyl ether (4.1 parts by weight), POE-POP glycol (1 part by weight), POE sorbitan laurate (0.8 parts by weight), glycerin (2.6 parts by weight), dimethylformamide (65.9 parts by weight), N-methylpyrrolidone (5.1 parts by weight), cyclohexanone (15.4 parts by weight), and aromatic hydrocarbons (5.1 parts by weight) were mixed and dissolved to prepare an emulsion. The active ingredient (4 mg) of the composition of the present invention was dissolved in this emulsion (100 μL) to prepare a test emulsion. It should be noted that POA means “polyoxyalkylene”, POE means “polyoxyethylene”, and POP means “polyoxypropylene”.\n(§3) For the evaluation of the herbicidal effects, the above ground weights of weeds in the untreated and treated areas were measured for each weed 3 weeks after spraying treatment, and the herbicidal effect (%) was calculated by the following calculation formula.\n(§4) Herbicidal effect (%)=[(above ground weight of weeds in untreated area)−(above ground weight of weeds in treated area)/(above ground weight of weeds in untreated area)]×100\nA test emulsion was prepared in the same manner as in Test Example 4.\nA 300 cm^2 pot was filled with soil, and seeds of Triticum aestivum, multidrug-resistant Alopecurus myosuroides, Lolium multiflorum and Avena fatua were sown into the surface layer, and covered with soil to a thickness of 0.5 to 1 cm. The above test emulsion was diluted so that the amount of the active ingredient became a predetermined amount, and sprayed on the soil surface at a spray water volume of 250 L per hectare, followed by growth in an outdoor environment.\nSeven weeks after spraying, the evaluation was carried out in the same manner as in Test Example 4, except that the above ground weights of weeds in the untreated and treated areas were measured for each weed.\nThe following plants were used as useful plants [scientific names]. • Wheat [Triticum aestivum]"}, "Zea mays": {"system": "Zea mays", "test": "Test Example 4: foliar spraying treatment, herbicidal effect from above ground weight (useful plant)", "details": "Compound (I-3) alone, 63 gai/ha, 3 weeks after spraying", "experimental": "as §2\n(§5) A 300 cm^2 pot was filled with soil, and seeds of Zea mays, Setaria faberi, Sorghum halepense, Brachiaria platyphylla, Amaranthus palmeri, Senna obtusifolia and Ipomoea hederacea were sown into the surface layer, and then grown in a greenhouse after being covered lightly with soil. When each plant grew to a plant height of 7 to 11 cm, it was used for the test. The test emulsion was diluted so that the amount of the active ingredient became a predetermined amount, and sprayed on the foliage with a small sprayer at a spray water volume of 250 L per hectare.\nas §3\nas §1, with “(1967)). […]” for “(1967)).”"}, "Setaria faberi": {"system": "Setaria faberi", "test": "Test Example 4: foliar spraying treatment, herbicidal effect from above ground weight", "details": "Compound (I-3) alone, 63 gai/ha, 3 weeks after spraying", "experimental": "as §2, §5, §3, §1\n(§6) M indicates an herbicidal effect (%) in the application of the compound (1) alone, N indicates an herbicidal effect (%) in the application of the compound (II) alone, and E indicates an expected value (%) of the herbicidal effect in the combined application of the compound (I) and the compound (II). When the actual measured value (%) of the herbicidal effect in the combined application of the compound (I) and the compound (II) is greater than the expected value E, it can be regarded that the combined application of the compound (1) and the compound (II) has a synergistic effect.\nas §4\n(§7) The following grass species were used as grass species to be controlled [scientific names]. • Giant foxtail [Setaria faberi] • Johnson grass [Sorghum halepense] • Broadleaf signalgrass [Brachiaria platyphylla] • Palmer amaranth [Amaranthus palmeri] • Sicklepod [Senna obtusifolia] • Morning glory [Ipomoea hederacea]"}, "Amaranthus palmeri": {"system": "Amaranthus palmeri", "test": "Test Example 4: foliar spraying treatment, herbicidal effect from above ground weight", "details": "Compound (I-3) alone, 63 gai/ha, 3 weeks after spraying", "experimental": "as §2, §5, §3, §1, §6, §4, §7"}, "Brachiaria platyphylla": {"system": "Brachiaria platyphylla", "test": "Test Example 4: foliar spraying treatment, herbicidal effect from above ground weight", "details": "Compound (I-3) alone, 63 gai/ha, 3 weeks after spraying", "experimental": "as §2, §5, §3, §1, §6, §4, §7"}, "Sorghum halepense": {"system": "Sorghum halepense", "test": "Test Example 4: foliar spraying treatment, herbicidal effect from above ground weight", "details": "Compound (I-3) alone, 63 gai/ha, 3 weeks after spraying", "experimental": "as §2, §5, §3, §1, §6, §4, §7"}, "Ipomoea hederacea": {"system": "Ipomoea hederacea", "test": "Test Example 4: foliar spraying treatment, herbicidal effect from above ground weight", "details": "Compound (I-3) alone, 63 gai/ha, 3 weeks after spraying", "experimental": "as §2, §5, §3, §1, §6, §4, §7"}, "Senna obtusifolia": {"system": "Senna obtusifolia", "test": "Test Example 4: foliar spraying treatment, herbicidal effect from above ground weight", "details": "Compound (I-3) alone, 63 gai/ha, 3 weeks after spraying", "experimental": "as §2, §5, §3, §1, §6, §4, §7"}}, "note": "Like-named read-outs stand apart in the source and are kept apart here."}
{"smiles": "COC12OC1(c1ccc(C(F)(F)F)c3c1CCCS3(=O)=O)C=NN(C)C2=O", "note": "(centres unmarked) [Compound (I-3), 1-methoxy-3-methyl-6-(1,1-dioxido-8-(trifluoromethyl)thiochroman-5-yl)-7-oxa-3,4-diazabicyclo[4.1.0]hept-4-en-2-one]", "values": [{"measurement": "pest or weed control at 3.1 ppm", "setting": "Ambrosia artemisiifolia; read-out: Herbicidal effect (%), applied alone, amount of active ingredient 3.1 ppm", "value": 65, "unit": "%"}, {"measurement": "pest or weed control at 3.1 ppm", "setting": "Ambrosia artemisiifolia; read-out: Herbicidal effect (%), compound applied alone, amount of active ingredient 3.1 ppm", "value": 70, "unit": "%"}, {"measurement": "Actual measured value of herbicidal effect", "setting": "Triticum aestivum; 63 gai/ha", "value": 0, "unit": "%"}, {"measurement": "Actual measured value of herbicidal effect", "setting": "Triticum aestivum; 125 gai/ha", "value": 0, "unit": "%"}, {"measurement": "Actual measured value of herbicidal effect", "setting": "Zea mays", "value": 0, "unit": "%"}, {"measurement": "Actual measured value of herbicidal effect", "setting": "Setaria faberi", "value": 80, "unit": "%"}, {"measurement": "Actual measured value of herbicidal effect", "setting": "Amaranthus palmeri", "value": 100, "unit": "%"}, {"measurement": "Actual measured value of herbicidal effect", "setting": "Brachiaria platyphylla", "value": 80, "unit": "%"}, {"measurement": "Actual measured value of herbicidal effect", "setting": "Sorghum halepense", "value": 80, "unit": "%"}, {"measurement": "Actual measured value of herbicidal effect", "setting": "Ipomoea hederacea", "value": 70, "unit": "%"}, {"measurement": "Actual measured value of herbicidal effect", "setting": "Senna obtusifolia", "value": 60, "unit": "%"}]}
